According to paper PMC9346113, “Therapeutic impact of BET inhibitor BI 894999 treatment: backtranslation from the clinic” (British Journal of Cancer, 2022):

What was measured:
[1] = tested on: Ty-82 xenograft (BRD4-NUT); assay: Ty-82 NC xenograft model; type: in vivo, mice; details: 2 mg/kg BI 894999 p.o. daily
Source text: Mice were group-housed (8–10 mice per cage) under pathogen-free and controlled environmental conditions (21 ± 1.5 C temperature, 55 ± 10% humidity) in an AAALAC accredited facility and handled according to the institutional, governmental and European Union guidelines (Austrian Animal Protection Laws, GV-SOLAS and FELASA guidelines). Animal studies were approved by the internal ethics committee and the local government committee. Mice were 6- to 8-week-old female CIEA NOG purchased from Taconic, Denmark (NOD.Cg-Prkdc^scid Il2rg^tm1Sug/JicTac). 5 × 10^6 NC tumour cells were injected subcutaneously into the right flank of the mice (1 site per mouse). Mice were randomly distributed between the treatment and the vehicle control when tumours were well established and had reached volumes of 100–150 mm^3. Compounds were suspended in 0.5% Natrosol and administered once daily intra-gastral by gavage needle. Tumour diameters were measured three times a week with a calliper. […] Within each subtopic the p-values of the efficacy parameters were adjusted for multiple comparisons according to Bonferroni–Holm. The p-values of the tolerability parameter remained unadjusted in order not to overlook a possible adverse effect. The level of significance was fixed at α = 5%. An adjusted p-value of less than 0.05 was considered to show a statistically significant difference between the groups. The statistical evaluation was prepared using the software Graph Pad Prism.

[2] = tested on: NC lines (Ty-82) versus AML cell lines (MV-4-11); assay: Incucyte caspase-3/7 apoptosis / cell death analysis; type: cell-based, human; details: in contrast to AML cell lines, Supplementary Fig. S3
Protocol: Live-cell imaging was performed with the Incucyte® S3 Live-Cell Analysis System as described previously for Incucyte® Zoom.
Incucyte analysis. Ty-82 cells (NC) or MV-4-11 (AML) cells were treated with BI 894999 at the concentrations indicated and analyzed over time with the IncuCyte™Caspase-3/7 Apoptosis Assay Reagent (Essenbioscience Cat No 4440). Cell confluence (left) and green fluorescence as a measure of caspase 3/7 activation (right) were monitored for up to 7 days with images taken every 3 hours.

CNc1nc(-c2nc3ccc(N4CCN(C)CC4)cc3n2Cc2ccccc2)cn2c(C)nnc12 [BI 894999]
TGI (tumour growth inhibition) [1]: 5%
fold higher compound concentrations required to undergo cell death [2]: > 100 fold
